This is an account of results in ChEMBL document CHEMBL3813691, “Quantitative relationships between structure and cytotoxic activity of flavonoid derivatives. An application of Hirshfeld surface derived descriptors” (Bioorg Med Chem Lett, 2016).

System in the first data set: not listed separately
As to the kind of experiment: Cytotoxicity against human HL60 cells assessed as reduction in cell survival after 46 hrs by MTT assay. In kind it is functional, cell-based. To be noted: HL-60, 46 h.
For orientation: IC50 means the concentration that gives 50% inhibition. As for `Oc1cccc(C2NN=C3c4ccccc4OC(c4ccccc4)C32)c1` (stereo not drawn), the IC50 is 50 µM. `Cc1cccc(C2C3C(=NN2C)c2ccccc2OC3c2ccccc2)c1` (stereo not drawn): the half-inhibitory concentration (IC50) came out at 60.5 µM. Regarding `CN1N=C2c3ccccc3OC(c3ccccc3)C2C1c1cccc(C#N)c1` (stereo not drawn), the IC50 is 65.4 µM.

Consider `N#Cc1cccc(C2CN=NC23C(=O)c2ccccc2OC3c2ccccc2)c1` (stereo not drawn), for which the IC50 is 75 µM.

On to `CN1N=C2c3ccccc3OC(c3ccccc3)C2C1c1cccc(O)c1` (stereo not drawn), for which the IC50 amounted to 344 µM.

In the case of `CN1N=C2c3ccccc3OC(c3ccccc3)C2C1c1ccccc1` (stereo not drawn), the half-maximal inhibitory concentration (IC50) worked out at 54.1 µM.

Regarding `O=C1/C(=C\c2ccccc2)C(c2ccccc2)Oc2ccccc21` (stereo not drawn), the IC50 worked out at 33.3 µM. The same measure, in the same setting: in the case of `CN1N=C2c3ccccc3OC(c3ccccc3)C2C1c1ccc(Cl)cc1` (stereo not drawn) it was 7.4 µM. Same read-out and setting: the result for `Oc1ccc2c(c1)C1=NNC(c3ccccc3)C1C(c1ccccc1)O2` (stereo not drawn) reads 27.3 µM; that for `Oc1ccc(C2NN=C3c4ccccc4OC(c4ccccc4)C32)cc1` (stereo not drawn), 42 µM; that for `Cc1ccc(C2C3C(=NN2C)c2ccccc2OC3c2ccccc2)cc1` (stereo not drawn), 27.8 µM. For `COc1cccc(C2C3C(=NN2C)c2ccccc2OC3c2ccccc2)c1` (stereo not drawn), the IC50 is 70.3 µM. For `CN1N=C2c3ccccc3OC(c3ccccc3)C2C1c1ccc(C#N)cc1` (stereo not drawn), the half-inhibitory concentration (IC50) stood at 20.1 µM. Consider `CN1N=C2c3ccccc3OC(c3ccccc3)C2C1c1ccc(F)cc1` (stereo not drawn), for which the IC50 amounted to 97.7 µM. On to `COc1ccc(C2C3C(=NN2C)c2ccccc2OC3c2ccccc2)cc1` (stereo not drawn), for which the IC50 worked out at 541 µM. On the same count and under the same terms, the result for `CN1N=C2c3ccccc3OC(c3ccccc3)C2C1c1ccc(Br)cc1` (stereo not drawn) reads 7.5 µM; that for `CN1N=C2c3cc(O)ccc3OC(c3ccccc3)C2C1c1ccccc1` (stereo not drawn), 37.7 µM. Turning to `COc1cccc(C2CN=NC23C(=O)c2ccccc2OC3c2ccccc2)c1` (stereo not drawn), the IC50 amounted to 74.9 µM.

As to `O=C1c2ccccc2OC(c2ccccc2)C12N=NCC2c1ccc([N+](=O)[O-])cc1` (stereo not drawn), the IC50 amounted to 54.6 µM. As for `CN1N=C2c3ccccc3OC(c3ccccc3)C2C1c1ccc(O)cc1` (stereo not drawn), the IC50 worked out at 47.7 µM. Regarding `c1ccc(C2Oc3ccccc3C3=NNC(c4ccncc4)C32)cc1` (stereo not drawn), the IC50 is 49.7 µM.

A further data set deals with HUVEC. Kind of data set: Cytotoxicity against HUVEC assessed as reduction in cell survival after 46 hrs by MTT assay. It counts as cell-based. The following applies: Homo sapiens. (Tetrazolium assays rely on reduction of a dye to a coloured formazan, in cell work by metabolically active cells.)
Take `O=C(/C=C/c1ccccc1Cl)c1ccccc1O`: the IC50 was 7.8 µM. On the same count and under the same terms, in the case of `O=C1/C(=C/c2ccc(Cl)cc2)C(c2ccccc2)Oc2ccccc21` (stereo not drawn) it was 6.9 µM; in that of `CN1N=C2c3ccccc3OC(c3ccccc3)C2C1c1ccc(Cl)cc1` (stereo not drawn), 70.9 µM.

Take `CN1N=C2c3ccccc3OC(c3ccccc3)C2C1c1ccc(Br)cc1` (stereo not drawn): the IC50 came to 184 µM.

System in the next data set: not listed separately
As to the kind of experiment: Cytotoxicity against human HL60 cells assessed as reduction in cell survival. To be noted: HL-60. In kind it is functional, cell-based.
Regarding `COc1cc([C@@H]2c3cc4c(cc3[C@@H](O[C@@H]3O[C@@H]5CO[C@@H](C)O[C@H]5[C@H](O)[C@H]3O)[C@H]3COC(=O)[C@H]23)OCO4)cc(OC)c1O` [ETOPOSIDE], the IC50 turned out to be 0.025 µM.

System in the next data set: not listed separately
Kind of data set: Selectivity ratio of IC50 for HUVEC to IC50 for human HL60 cells. It counts as cell-based, HL-60. To be noted: HUVEC and HL60 cells, read-out: Ratio IC50.
Turning to `CN1N=C2c3ccccc3OC(c3ccccc3)C2C1c1ccc(Cl)cc1` (stereo not drawn), the selectivity ratio amounted to 10. As for `CN1N=C2c3ccccc3OC(c3ccccc3)C2C1c1ccc(Br)cc1` (stereo not drawn), the selectivity ratio stood at 25.
